Reference: patent publication US20120022099A1, “NOVEL POLYMORPHIC FORMS OF AN AZABICYCLO-TRIFLUOROMETHYL BENZAMIDE DERIVATIVE” (SANOFI, priority 2008, published 2012)

Tests used:
[1] = Stability of the solid form, conversion between polymorphs; format: physicochemical; details: for stability of the polymorphic form: hydrochloride
DBA/2J mice = details: strain with low basal pre-pulse inhibition; cited from earlier work
c-Fos immunoreactivity = details: in vivo; cited from earlier work
NMDA receptor = details: cited from earlier work
GLYT-1 = molecular target: T1, GLYT-1 (Homo sapiens, UniProt P48067); details: in vitro; cited from earlier work
T1 sequence (P48067 1-706): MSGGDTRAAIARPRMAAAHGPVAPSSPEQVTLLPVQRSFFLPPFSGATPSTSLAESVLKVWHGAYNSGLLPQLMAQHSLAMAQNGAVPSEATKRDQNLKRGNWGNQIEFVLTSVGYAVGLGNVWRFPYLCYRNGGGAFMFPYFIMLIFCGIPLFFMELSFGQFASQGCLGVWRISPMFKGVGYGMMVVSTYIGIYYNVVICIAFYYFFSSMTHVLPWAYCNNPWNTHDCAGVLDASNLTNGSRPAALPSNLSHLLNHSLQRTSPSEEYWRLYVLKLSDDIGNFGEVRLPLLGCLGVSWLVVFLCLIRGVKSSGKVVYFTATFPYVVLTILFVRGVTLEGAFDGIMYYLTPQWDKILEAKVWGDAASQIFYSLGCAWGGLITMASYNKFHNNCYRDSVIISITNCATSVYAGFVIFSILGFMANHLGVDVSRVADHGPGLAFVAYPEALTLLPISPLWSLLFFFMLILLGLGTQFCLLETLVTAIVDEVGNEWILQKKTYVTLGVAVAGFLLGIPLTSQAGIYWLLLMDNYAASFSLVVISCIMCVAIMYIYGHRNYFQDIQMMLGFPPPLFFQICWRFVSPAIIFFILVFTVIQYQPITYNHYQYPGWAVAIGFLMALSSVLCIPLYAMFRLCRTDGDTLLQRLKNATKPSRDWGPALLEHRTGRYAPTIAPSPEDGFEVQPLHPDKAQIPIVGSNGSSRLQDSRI

[2] = Thermal decomposition on drying by heating; format: physicochemical; details: drying through heating to release residual solvents
[3] = test system: hippocampal dentate gyrus; details: induced by high-frequency electrical stimulation of the afferent perforant pathway; cited from earlier work

With `Cl.O=C(N[C@@H](c1ccccc1)[C@@H]1CC2CCN1CC2)c1c(Cl)ccc(C(F)(F)F)c1Cl` [Form B, N—[(S)-2(S)-1-azabicyclo[2.2.2]oct-2-yl(phenyl)methyl]-2,6-dichloro-3-(trifluoromethyl)benzamide hydrochloride] the solubility (Solubility in water) was over 200 mg/mL, the “solubility in water” value (Solubility in water; 45° C.) was “highly soluble in water” and the “conversion to polymorph A” value ([1]; aqueous system) was “readily converts to the desired polymorph A”. For the same molecule, the “stability of the polymorphic form” value [1] was “lower stability than Form A”.
In the case of `CN(CCC(Oc1ccc(-c2ccccc2)cc1)c1ccc(F)cc1)CC(=O)O` (single isomer, unassigned; (+)) [(+)-NFPS, (+)N-[3-(4′-fluorophenyl)-3-(4′-phenylphenoxy)-propyl]sarcosine], the “pre-pulse inhibition of the acoustic startle response” value (DBA/2J mice) is listed as “enhanced”, the “pattern of c-Fos immunoreactivity” value (c-Fos immunoreactivity) is listed as “comparable with the atypical anti-psychotic clozapine” and the “NMDA-induced [3H]GABA release” value (NMDA receptor) is listed as “significantly stimulated”. The “activity relative to the racemic compound” value (GLYT-1) was “greater than 10 fold”.
In the case of `Cl.O=C(N[C@@H](c1ccccc1)[C@@H]1CC2CCN1CC2)c1c(Cl)ccc(C(F)(F)F)c1Cl` [Form A, N—[(S)-2(S)-1-azabicyclo[2.2.2]oct-2-yl(phenyl)methyl]-2,6-dichloro-3-(trifluoromethyl)benzamide hydrochloride], the “temperature above which thermal decomposition of the compound occurs” value [2] is reported as “above 220 °C” and the “stability of the polymorphic form” value ([1]; listed as polymorph A) is reported as “highly stable”.
For `CN(CCC(Oc1ccc(-c2ccccc2)cc1)c1ccc(F)cc1)CC(=O)O` (racemic) [(+/−)-NFPS, N-[3-(4′-fluorophenyl)-3-(4′-phenylphenoxy)propyl]sarcosine], the long-term potentiation [3] is given as “significantly enhanced”.
